Measured values taken from publication PMC6269910 (Molecules, 2013).
Several values for one entry are separate records, joined by “and”; a condition that tells them apart may be missing. Identical values can stand only once.

Tests used:
[1] = tested on: lipid peroxidation in stomach; test: Lipid peroxidation in stomach (TBARS); assay type: in vivo, mice; settings: 100 mg/kg, 8 h after analgesic test
[2] = target: T1, HCV NS5B RNA dependent RNA polymerase (Hepatitis C virus genotype 1b, UniProt P26663); test: NS5B inhibition assay (primer dependent elongation, poly rA-U12); assay type: biochemical; settings: for inhibition at 100 µM: read-out: Anti-NS5B Activity (% Inh., 100 µM)
T1 construct: HCV NS5B RNA dependent RNA polymerase activity
T1 sequence (P26663 2420-3010): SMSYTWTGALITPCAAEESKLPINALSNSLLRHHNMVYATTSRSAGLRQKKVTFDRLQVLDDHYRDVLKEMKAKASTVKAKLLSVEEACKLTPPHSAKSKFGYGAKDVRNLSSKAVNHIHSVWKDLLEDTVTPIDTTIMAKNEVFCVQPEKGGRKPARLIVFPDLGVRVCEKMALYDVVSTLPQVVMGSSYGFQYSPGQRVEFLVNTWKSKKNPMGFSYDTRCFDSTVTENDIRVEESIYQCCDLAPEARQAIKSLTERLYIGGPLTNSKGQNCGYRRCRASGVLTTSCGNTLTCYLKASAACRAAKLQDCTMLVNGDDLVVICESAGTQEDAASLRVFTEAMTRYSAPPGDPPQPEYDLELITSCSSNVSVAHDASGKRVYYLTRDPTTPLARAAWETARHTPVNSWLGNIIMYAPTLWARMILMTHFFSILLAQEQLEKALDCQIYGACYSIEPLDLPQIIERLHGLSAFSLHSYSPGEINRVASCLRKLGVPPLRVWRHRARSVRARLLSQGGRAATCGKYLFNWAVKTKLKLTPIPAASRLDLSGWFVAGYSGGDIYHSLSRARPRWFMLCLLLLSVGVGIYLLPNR
Procedure: The compounds 1a–e and 2a–e were reconstituted in DMSO as 50 mM stocks, and serially diluted in DMSO to obtain working stocks. Wedelolactone, a known inhibitor of HCV NS5B activity, was employed as a reference compound. Preliminary screening was carried out at 100 μM to identify a wider range of compounds.
All synthesized compounds were evaluated for their effect on HCV NS5B RNA dependent RNA polymerase activity in primer dependent elongation assays as previously described. Activity of NS5B in the absence of the inhibitor but containing an equivalent amount of DMSO (control reaction) was set at 100% and that in the presence of the inhibitor was quantified relative to this control.

stomach = test: Gastric-ulcerogenic effect (ulcer score); assay type: in vivo, mice; settings: 200 mg/kg p.o.; animals with lesions/animals
[3] = tested on: carrageenan-induced hind paw edema; test: Carrageenan-induced hind paw edema model; assay type: in vivo, mice; settings: for anti-inflammatory activity (in words): all doses, all measurement intervals
Procedure: Locally bred balb/c mice of both sexes (30-35 g) were purchased from the animal breeding laboratories of Inonu University ([…], Turkey). The animals were fed a standard pellet diet and water ad libitum in a temperature-controlled room. On the day before the treatments, food was withdrawn, but the animals were allowed free access of water. The allocation of animals to different groups was randomized, and the experiments were carried out under blind conditions. Mice used in the present study were cared for in accordance with the directory of the Inonu University Animal Care Unit, which applies the guidelines of the National Institutes of Health on laboratory animal welfare. Procedures involving animals and their care were conducted in conformity with international laws and policies and animal studies accepted by Inonu University Ethical Council (2011/A17). Test samples, suspended in a mixture of distilled water and 0.5% sodium carboxymethyl cellulose (CMC), were given orally to the animals. The control group animals received the same experimental handling as those of the test groups, except that the drug treatment was replaced with appropriate volumes of the dosing vehicle. […] For the preliminary activity screening, each test group was composed of four mice. […] Because of the daily changing circumstance, we used another control group for each experiment. For the determination of the effects on carrageenan-induced paw oedema, the modified method of Kasahara et al. was employed. One hour after the oral administration of either test sample or dosing vehicle, each mouse was injected with a freshly prepared (0.5 mg/25 μL) suspension of carrageenan (Sigma, St. Louis, MO, USA) in physiological saline (154 mM NaCl). The subplantar tissue of the right hind paw was the injection site for all mice. The contralateral paw (left hind paw) was injected with 25 μL saline solution as the internal control. […] The difference in footpad thickness between the right and left foot indicated the degree of inflammation for each mouse. The change in paw volume, either increase or decrease, was calculated and compared with the control group (dosing vehicle) and analyzed using statistical methods.

[4] = tested on: acetic acid-induced abdominal constriction; test: Acetic acid-induced writhing (Koster) test; assay type: in vivo, mice; settings: for analgesic activity (in words): 100 mg/kg; for Writhing test (% inh.) / Writhing test (Mean ± SEM): 100 mg/kg oral; for Writhing test (Mean ± SEM): writhings counted 10 min from 5 min after acetic acid
Procedure: Test samples, suspended in a mixture of distilled water and 0.5% sodium carboxymethyl cellulose (CMC), were given orally to the animals. The control group animals received the same experimental handling as those of the test groups, except that the drug treatment was replaced with appropriate volumes of the dosing vehicle. […] One hour after oral administration of test sample, each mouse was injected intraperitoneally with 3% (w/v) acetic acid solution (0.1 mL/10 g, bw). Starting 5 min after the acetic acid injection, the number of muscular contractions on mice were counted for a period of 10 min. A significant reduction in the number of writhings by any treatment as compared to the number of writhings in control animals was considered a positive analgesic response. The analgesic activity was expressed as a percentage change from writhing controls. ASA was used as a reference compound and administered at 200 mg/kg.

| Lipid peroxidation [1] | melting point | inhibition at 100 µM [2] | Structure (SMILES) | Ulcer score (stomach) | Swelling in thickness ± SEM ([3]; 50 mg/kg per os, 90 min) | percent inhibitory activity ([3]; 50 mg/kg per os, 90 min) | Swelling in thickness ± SEM ([3]; 50 mg/kg per os, 180 min) | percent inhibitory activity ([3]; 50 mg/kg per os, 180 min) | Swelling in thickness ± SEM ([3]; 50 mg/kg per os, 270 min) | percent inhibitory activity ([3]; 50 mg/kg per os, 270 min) | Swelling in thickness ± SEM ([3]; 50 mg/kg per os, 360 min) | percent inhibitory activity ([3]; 50 mg/kg per os, 360 min) | Swelling in thickness ± SEM ([3]; 100 mg/kg per os, 90 min) | Swelling in thickness ± SEM ([3]; 100 mg/kg per os, 270 min) | percent inhibitory activity ([3]; 100 mg/kg per os, 270 min) | Swelling in thickness ± SEM ([3]; 100 mg/kg per os, 360 min) | percent inhibitory activity ([3]; 100 mg/kg per os, 360 min) | Swelling in thickness ± SEM ([3]; 200 mg/kg per os, 90 min) | Swelling in thickness ± SEM ([3]; 200 mg/kg per os, 180 min) | percent inhibitory activity ([3]; 200 mg/kg per os, 180 min) | also measured |
| --- | --- | --- | --- | --- | --- | --- | --- | --- | --- | --- | --- | --- | --- | --- | --- | --- | --- | --- | --- | --- | --- |
| 330.4 ± 9.7 nmol TBARS/g wet weight | 250 °C | 19.4% | Cc1ccc(-c2cc(C(F)(F)F)nn2-c2ccc(S(=O)(=O)/N=C3\SCC(=O)N3Cc3ccccc3)cc2)cc1 [Compound 2c, N-(3-Benzyl-4-oxo-1,3-thiazolidin-2-yldene)-4-[5-(4-methylphenyl)-3-(trifluoromethyl)-1H-pyrazol-1-yl]benzenesulfonamide] | 0/5 | 65.0 ± 6.1 × 10^−2 mm | 9.7% | 74.0 ± 8.8 × 10^−2 mm | 19.5% | 95.0 ± 10.0 × 10^−2 mm | 21.4% | 110.0 ± 7.1 × 10^−2 mm | 14.7% | 83.4 ± 8.7 × 10^−2 mm | 91.7 ± 16.7 × 10^−2 mm | 24.2% | 118.2 ± 7.1 × 10^−2 mm | 8.3% | 69.5 ± 8.3 × 10^−2 mm | 75.6 ± 8.3 × 10^−2 mm | 17.8% | Swelling in thickness ± SEM ([3]; 100 mg/kg per os, 180 min): 90.6 ± 11.7 × 10^−2 mm; percent inhibitory activity ([3]; 200 mg/kg per os, 90 min): 3.4%; Swelling in thickness ± SEM ([3]; 200 mg/kg per os, 270 min): 133.2 ± 14.3 × 10^−2 mm; Swelling in thickness ± SEM ([3]; 200 mg/kg per os, 360 min): 120.1 ± 5.3 × 10^−2 mm; percent inhibitory activity ([3]; 200 mg/kg per os, 360 min): 6.9%; analgesic activity (in words) [4]: not statistically significant; Writhing test (% inh.) [4]: 32.2%; Writhing test (Mean ± SEM) [4]: 11.8 ± 1.4 |
| 429.2 ± 23.2 nmol TBARS/g wet weight | 245 to 248 °C | 68% | Cc1ccc(-c2cc(C(F)(F)F)nn2-c2ccc(S(=O)(=O)NC(=S)Nc3ccc([N+](=O)[O-])cc3)cc2)cc1 [Compound 1d] | 0/5 | 70.0 ± 4.7 × 10^−2 mm | 2.7% | 77.0 ± 2.0 × 10^−2 mm | 16.3% | 112.0 ± 7.3 × 10^−2 mm | 7.4% | 125.0 ± 5.9 × 10^−2 mm | 3.1% | 95.9 ± 10.2 × 10^−2 mm | 110.7 ± 11.0 × 10^−2 mm | 8.5% | 88.7 ± 9.3 × 10^−2 mm | 31.2% | 45.9 ± 10.9 × 10^−2 mm | 65.3 ± 6.4 × 10^−2 mm | 29.0% | IC50 ([2]; dose-response, 8–12 concentrations): 46 µM and 45.5 µM; percent inhibitory activity ([3]; 200 mg/kg per os, 90 min): 36.2%; Swelling in thickness ± SEM ([3]; 200 mg/kg per os, 270 min): 98.2 ± 9.8 × 10^−2 mm; percent inhibitory activity ([3]; 200 mg/kg per os, 270 min): 19.0%; Swelling in thickness ± SEM ([3]; 200 mg/kg per os, 360 min): 91.0 ± 3.3 × 10^−2 mm; percent inhibitory activity ([3]; 200 mg/kg per os, 360 min): 29.5%; anti-inflammatory activity (in words) [3]: moderate-to-good; Writhing test (% inh.) [4]: 19.5%; Writhing test (Mean ± SEM) [4]: 14.0 ± 3.0 |
| 350.2 ± 9.9 nmol TBARS/g wet weight | 270 to 272 °C | 31.3% | Cc1ccc(-c2cc(C(F)(F)F)nn2-c2ccc(S(=O)(=O)/N=C3\SCC(=O)N3c3ccc([N+](=O)[O-])cc3)cc2)cc1 [Compound 2d, N-[3-(4-Nitrophenyl)-4-oxo-1,3-thiazolidin-2-yldene)-4-[5-(4-methylphenyl)-3-(trifluoromethyl)-1H-pyrazol-1-yl]benzenesulfonamide] | 0/5 | 47.0 ± 3.3 × 10^−2 mm | 34.7% | 47.0 ± 3.7 × 10^−2 mm | 48.9% | 89.0 ± 6.5 × 10^−2 mm | 26.4% | 110.0 ± 6.7 × 10^−2 mm | 14.7% | 73.2 ± 11.1 × 10^−2 mm | 98.2 ± 16.7 × 10^−2 mm | 21.6% | 120.9 ± 9.3 × 10^−2 mm | 6.3% | 80.6 ± 9.4 × 10^−2 mm | 86.0 ± 9.4 × 10^−2 mm | 6.5% | Swelling in thickness ± SEM ([3]; 100 mg/kg per os, 180 min): 100.6 ± 5.8 × 10^−2 mm; Swelling in thickness ± SEM ([3]; 200 mg/kg per os, 360 min): 108.6 ± 5.6 × 10^−2 mm; percent inhibitory activity ([3]; 200 mg/kg per os, 360 min): 15.8%; anti-inflammatory activity (in words) [3]: moderate-to-good; analgesic activity (in words) [4]: not statistically significant; Writhing test (% inh.) [4]: 31%; Writhing test (Mean ± SEM) [4]: 12.0 ± 2.6 |
